Laboratory results from the supplement of paper PMC10307832.

Columns and labels:
Assay in all cases: relative viability (nuclei count vs DMSO), 5 days (fraction); higher = more cells survive
CAL-12T = test system: CAL-12T
Method in brief: (§1)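 Relative viability divides the nuclei count in treated wells by that in vehicle wells. Lung cancer cell lines were seeded in 1536-well plates, dosed by pin tool the next day, and fixed and stained after 5 days in one step with final 0.05% Triton X-100, 1% formaldehyde and 1 ug/ml Hoechst. Dosing was a single drug or a fixed anchor-drug dose plus five library-drug doses (not always all listed) in √10 steps, and values are medians of duplicate plates imaged at 4×.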

EKVX = test system: EKVX
Method in brief: as §1

H3255 = test system: H3255
Method in brief: as §1

HCC-15 = test system: HCC-15
Method in brief: as §1

HCC-827 = test system: HCC-827
Method in brief: as §1

LCLC-97TM1 = test system: LCLC-97TM1
Method in brief: as §1

LK-2 = test system: LK-2
Method in brief: as §1

NCI-H1355 = test system: NCI-H1355
Method in brief: as §1

NCI-H1650 = test system: NCI-H1650
Method in brief: as §1

NCI-H1734 = test system: NCI-H1734
Method in brief: as §1

NCI-H1755 = test system: NCI-H1755
Method in brief: as §1

NCI-H1975 = test system: NCI-H1975
Method in brief: as §1

NCI-H2228 = test system: NCI-H2228
Method in brief: as §1

NCI-H2342 = test system: NCI-H2342
Method in brief: as §1

NCI-H2405 = test system: NCI-H2405
Method in brief: as §1

NCI-H322M = test system: NCI-H322M
Method in brief: as §1

NCI-H520 = test system: NCI-H520
Method in brief: as §1

NCI-H661 = test system: NCI-H661
Method in brief: as §1

PC-14 = test system: PC-14
Method in brief: as §1

PC-3 [JPC-3] = test system: PC-3 [JPC-3]
Method in brief: as §1

RERF-LC-KJ = test system: RERF-LC-KJ
Method in brief: as §1

O=c1cc(-c2cccc3c2Sc2ccccc2S3)oc(N2CCOCC2)c1 + CC(=O)Nc1cccc(-n2c(=O)n(C3CC3)c(=O)c3c(Nc4ccc(I)cc4F)n(C)c(=O)c(C)c32)c1 [Trametinib] (partner 0.02 µM)
relative viability (CAL-12T; first compound 0.08 µM): 0.297
relative viability (CAL-12T; first compound 0.253 µM): 0.333
relative viability (CAL-12T; first compound 0.8 µM): 0.305
relative viability (CAL-12T; first compound 2.53 µM): 0.263
relative viability (CAL-12T; first compound 8 µM): 0.246
relative viability (EKVX; first compound 0.08 µM): 0.554
relative viability (EKVX; first compound 0.253 µM): 0.332
relative viability (EKVX; first compound 0.8 µM): 0.296
relative viability (EKVX; first compound 2.53 µM): 0.332
relative viability (EKVX; first compound 8 µM): 0.336
relative viability (H3255; first compound 0.08 µM): 0.725
relative viability (H3255; first compound 0.253 µM): 0.588
relative viability (H3255; first compound 0.8 µM): 0.681
relative viability (H3255; first compound 2.53 µM): 0.543
relative viability (H3255; first compound 8 µM): 0.561
relative viability (HCC-15; first compound 0.08 µM): 0.362
relative viability (HCC-15; first compound 0.253 µM): 0.454
relative viability (HCC-15; first compound 0.8 µM): 0.369
relative viability (HCC-15; first compound 2.53 µM): 0.363
relative viability (HCC-15; first compound 8 µM): 0.38
relative viability (HCC-827; first compound 0.08 µM): 0.508
relative viability (HCC-827; first compound 0.253 µM): 0.563
relative viability (HCC-827; first compound 0.8 µM): 0.537
relative viability (HCC-827; first compound 2.53 µM): 0.427
relative viability (HCC-827; first compound 8 µM): 0.544
relative viability (LCLC-97TM1; first compound 0.08 µM): 0.204
relative viability (LCLC-97TM1; first compound 0.253 µM): 0.196
relative viability (LCLC-97TM1; first compound 0.8 µM): 0.175
relative viability (LCLC-97TM1; first compound 2.53 µM): 0.186
relative viability (LCLC-97TM1; first compound 8 µM): 0.181
relative viability (LK-2; first compound 0.08 µM): 0.874
relative viability (LK-2; first compound 0.253 µM): 0.852
relative viability (LK-2; first compound 0.8 µM): 0.755
relative viability (LK-2; first compound 2.53 µM): 0.712
relative viability (LK-2; first compound 8 µM): 1.03
relative viability (NCI-H1355; first compound 0.08 µM): 0.524
relative viability (NCI-H1355; first compound 0.253 µM): 0.468
relative viability (NCI-H1355; first compound 0.8 µM): 0.348
relative viability (NCI-H1355; first compound 2.53 µM): 0.409
relative viability (NCI-H1355; first compound 8 µM): 0.352
relative viability (NCI-H1650; first compound 0.08 µM): 0.516
relative viability (NCI-H1650; first compound 0.253 µM): 0.648
relative viability (NCI-H1650; first compound 0.8 µM): 0.503
relative viability (NCI-H1650; first compound 2.53 µM): 0.497
relative viability (NCI-H1650; first compound 8 µM): 0.622
relative viability (NCI-H1734; first compound 0.08 µM): 0.656
relative viability (NCI-H1734; first compound 0.253 µM): 0.72
relative viability (NCI-H1734; first compound 0.8 µM): 0.69
relative viability (NCI-H1734; first compound 8 µM): 0.697
relative viability (NCI-H1755; first compound 0.08 µM): 0.739
relative viability (NCI-H1755; first compound 0.253 µM): 0.867
relative viability (NCI-H1755; first compound 0.8 µM): 0.732
relative viability (NCI-H1755; first compound 2.53 µM): 0.789
relative viability (NCI-H1755; first compound 8 µM): 0.787
relative viability (NCI-H1975; first compound 0.08 µM): 0.323
relative viability (NCI-H1975; first compound 0.253 µM): 0.295
relative viability (NCI-H1975; first compound 0.8 µM): 0.327
relative viability (NCI-H1975; first compound 2.53 µM): 0.347
relative viability (NCI-H1975; first compound 8 µM): 0.39
relative viability (NCI-H2228; first compound 0.08 µM): 0.554
relative viability (NCI-H2228; first compound 0.253 µM): 0.72
relative viability (NCI-H2228; first compound 0.8 µM): 0.582
relative viability (NCI-H2228; first compound 2.53 µM): 0.416
relative viability (NCI-H2228; first compound 8 µM): 0.447
relative viability (NCI-H2342; first compound 0.08 µM): 0.744
relative viability (NCI-H2342; first compound 0.253 µM): 0.897
relative viability (NCI-H2342; first compound 0.8 µM): 0.736
relative viability (NCI-H2342; first compound 2.53 µM): 0.716
relative viability (NCI-H2342; first compound 8 µM): 0.935
relative viability (NCI-H2405; first compound 0.08 µM): 0.589
relative viability (NCI-H2405; first compound 0.253 µM): 0.673
relative viability (NCI-H2405; first compound 0.8 µM): 0.599
relative viability (NCI-H2405; first compound 2.53 µM): 0.534
relative viability (NCI-H2405; first compound 8 µM): 0.577
relative viability (NCI-H322M; first compound 0.08 µM): 0.52
relative viability (NCI-H322M; first compound 0.253 µM): 0.558
relative viability (NCI-H322M; first compound 0.8 µM): 0.591
relative viability (NCI-H322M; first compound 2.53 µM): 0.443
relative viability (NCI-H322M; first compound 8 µM): 0.529
relative viability (NCI-H520; first compound 0.08 µM): 0.566
relative viability (NCI-H520; first compound 0.253 µM): 0.741
relative viability (NCI-H520; first compound 0.8 µM): 0.78
relative viability (NCI-H520; first compound 2.53 µM): 0.776
relative viability (NCI-H520; first compound 8 µM): 0.637
relative viability (NCI-H661; first compound 0.08 µM): 0.565
relative viability (NCI-H661; first compound 0.253 µM): 0.649
relative viability (NCI-H661; first compound 0.8 µM): 0.527
relative viability (NCI-H661; first compound 2.53 µM): 0.514
relative viability (NCI-H661; first compound 8 µM): 0.471
relative viability (PC-14; first compound 0.08 µM): 0.748
relative viability (PC-14; first compound 0.253 µM): 0.828
relative viability (PC-14; first compound 0.8 µM): 0.728
relative viability (PC-14; first compound 2.53 µM): 0.827
relative viability (PC-14; first compound 8 µM): 0.718
relative viability (PC-3 [JPC-3]; first compound 0.08 µM): 0.542
relative viability (PC-3 [JPC-3]; first compound 0.253 µM): 0.732
relative viability (PC-3 [JPC-3]; first compound 0.8 µM): 0.53
relative viability (PC-3 [JPC-3]; first compound 2.53 µM): 0.617
relative viability (PC-3 [JPC-3]; first compound 8 µM): 0.673
relative viability (RERF-LC-KJ; first compound 0.08 µM): 0.79
relative viability (RERF-LC-KJ; first compound 0.253 µM): 0.856
relative viability (RERF-LC-KJ; first compound 0.8 µM): 0.89
relative viability (RERF-LC-KJ; first compound 2.53 µM): 0.895
relative viability (RERF-LC-KJ; first compound 8 µM): 0.784
